Several values for one entry are separate records, joined by “and”; a condition that tells them apart may be missing. Identical values can stand only once. ± gives the expanded uncertainty stated by the source.
Experiment: xn = mol fraction of the nth substance listed
Conditions: Fluid (supercritical or subcritical phases), Constant-volume piezometry

CCO [ethanol] + O
Conditions	mass density
524.15 K, 7270 kPa, x1 = 0.8	383.33 ± 2.6 kg/m3
525.15 K, 7460 kPa, x1 = 0.8	383.31 ± 3 kg/m3
526.15 K, 7550 kPa, x1 = 0.8	367.95 ± 10 kg/m3
528.15 K, 7710 kPa, x1 = 0.8	312.86 ± 35 kg/m3
528.15 K, 7870 kPa, x1 = 0.8	367.91 ± 21 kg/m3
528.15 K, 8040 kPa, x1 = 0.8	383.24 ± 7.2 kg/m3
528.15 K, 8410 kPa, x1 = 0.8	406.33 ± 6.3 kg/m3
531.15 K, 8420 kPa, x1 = 0.8	367.86 ± 6 kg/m3
533.15 K, 4750 kPa, x1 = 0.8	53.24 ± 2.6 kg/m3
533.15 K, 7070 kPa, x1 = 0.5	84.52 ± 4.7 kg/m3
533.15 K, 7100 kPa, x1 = 0.8	115.14 ± 5.5 kg/m3
533.15 K, 8140 kPa, x1 = 0.8	188.77 ± 43 kg/m3
533.15 K, 8270 kPa, x1 = 0.8	244.11 ± 44 kg/m3 and 260.96 ± 44 kg/m3
533.15 K, 8350 kPa, x1 = 0.8	284.34 ± 28 kg/m3
533.15 K, 8420 kPa, x1 = 0.8	312.77 ± 24 kg/m3
533.15 K, 8440 kPa, x1 = 0.8	307.44 ± 25 kg/m3
533.15 K, 8750 kPa, x1 = 0.8	367.82 ± 14 kg/m3
533.15 K, 8990 kPa, x1 = 0.8	383.14 ± 5.5 kg/m3
533.15 K, 9460 kPa, x1 = 0.8	406.22 ± 4 kg/m3
533.15 K, 10480 kPa, x1 = 0.8	440.21 ± 3.3 kg/m3
533.15 K, 10860 kPa, x1 = 0.8	446.58 ± 2.4 kg/m3
533.15 K, 17410 kPa, x1 = 0.8	516.16 ± 1 kg/m3
538.15 K, 9170 kPa, x1 = 0.8	312.69 ± 2 kg/m3
538.15 K, 27310 kPa, x1 = 0.8	553.51 ± 0.79 kg/m3
543.15 K, 4920 kPa, x1 = 0.8	53.21 ± 2.3 kg/m3
543.15 K, 7570 kPa, x1 = 0.5	84.48 ± 8.6 kg/m3
543.15 K, 7610 kPa, x1 = 0.8	115.08 ± 3.1 kg/m3
543.15 K, 9020 kPa, x1 = 0.8	188.68 ± 7.1 kg/m3
543.15 K, 9530 kPa, x1 = 0.8	260.83 ± 15 kg/m3
543.15 K, 9680 kPa, x1 = 0.8	284.19 ± 11 kg/m3
543.15 K, 9920 kPa, x1 = 0.8	312.61 ± 8.6 kg/m3
543.15 K, 10630 kPa, x1 = 0.8	367.62 ± 6.9 kg/m3
543.15 K, 10940 kPa, x1 = 0.8	382.93 ± 4.5 kg/m3
543.15 K, 11670 kPa, x1 = 0.8	406 ± 3.2 kg/m3
548.15 K, 7850 kPa, x1 = 0.8	115.06 ± 4.7 kg/m3
548.15 K, 9420 kPa, x1 = 0.8	188.63 ± 5.8 kg/m3
548.15 K, 9680 kPa, x1 = 0.5	294.01 ± 18 kg/m3
548.15 K, 9720 kPa, x1 = 0.5	327.56 ± 14 kg/m3
548.15 K, 9980 kPa, x1 = 0.8	243.92 ± 10 kg/m3
548.15 K, 10390 kPa, x1 = 0.5	421.66 ± 6.2 kg/m3
548.15 K, 10630 kPa, x1 = 0.8	307.19 ± 6.6 kg/m3
548.15 K, 10680 kPa, x1 = 0.8	312.53 ± 6.6 kg/m3
548.15 K, 11790 kPa, x1 = 0.5	464.07 ± 1.5 kg/m3
548.15 K, 11950 kPa, x1 = 0.8	382.83 ± 3.3 kg/m3
548.15 K, 14420 kPa, x1 = 0.8	439.83 ± 1.8 kg/m3
548.15 K, 14800 kPa, x1 = 0.8	446.2 ± 1.8 kg/m3
548.15 K, 17240 kPa, x1 = 0.5	522.28 ± 0.91 kg/m3
548.15 K, 26570 kPa, x1 = 0.5	568.89 ± 0.72 kg/m3
548.15 K, 30490 kPa, x1 = 0.5	581.74 ± 0.73 kg/m3
553.15 K, 5080 kPa, x1 = 0.8	53.19 ± 4.1 kg/m3
553.15 K, 6130 kPa, x1 = 0.5	55.97 ± 1.2 kg/m3
553.15 K, 7190 kPa, x1 = 0.5	69.28 ± 1.7 kg/m3
553.15 K, 7970 kPa, x1 = 0.5	84.44 ± 2.4 kg/m3
553.15 K, 9210 kPa, x1 = 0.5	117.47 ± 4.8 kg/m3
553.15 K, 10090 kPa, x1 = 0.5	171.33 ± 15 kg/m3
553.15 K, 10330 kPa, x1 = 0.5	234.67 ± 26 kg/m3
553.15 K, 10520 kPa, x1 = 0.5	327.48 ± 15 kg/m3
553.15 K, 10600 kPa, x1 = 0.5	293.93 ± 11 kg/m3
553.15 K, 10890 kPa, x1 = 0.5	385.77 ± 8.5 kg/m3
553.15 K, 11430 kPa, x1 = 0.8	312.45 ± 5 kg/m3
553.15 K, 11790 kPa, x1 = 0.5	424.77 ± 3 kg/m3
553.15 K, 11850 kPa, x1 = 0.5	419.86 ± 3.1 kg/m3
553.15 K, 12540 kPa, x1 = 0.8	367.42 ± 5.2 kg/m3
553.15 K, 13460 kPa, x1 = 0.5	463.93 ± 1.4 kg/m3
553.15 K, 19450 kPa, x1 = 0.5	522.11 ± 0.97 kg/m3
553.15 K, 25160 kPa, x1 = 0.8	515.53 ± 1.2 kg/m3
553.15 K, 25720 kPa, x1 = 0.5	555.9 ± 0.71 kg/m3
553.15 K, 47100 kPa, x1 = 0.5	614.98 ± 0.72 kg/m3
558.15 K, 8310 kPa, x1 = 0.8	115 ± 3.6 kg/m3
558.15 K, 10340 kPa, x1 = 0.8	188.54 ± 4.6 kg/m3
558.15 K, 11380 kPa, x1 = 0.8	260.63 ± 7.4 kg/m3
558.15 K, 11700 kPa, x1 = 0.8	283.97 ± 5.7 kg/m3
558.15 K, 13990 kPa, x1 = 0.8	382.62 ± 3.7 kg/m3
558.15 K, 15170 kPa, x1 = 0.8	405.66 ± 2 kg/m3
563.15 K, 6360 kPa, x1 = 0.5	55.95 ± 1.5 kg/m3
563.15 K, 7510 kPa, x1 = 0.5	69.25 ± 1.6 kg/m3
563.15 K, 8400 kPa, x1 = 0.5	84.4 ± 2.1 kg/m3
563.15 K, 8830 kPa, x1 = 0.2	67.68 ± 2.8 kg/m3
563.15 K, 9900 kPa, x1 = 0.5	117.41 ± 3.2 kg/m3
563.15 K, 11080 kPa, x1 = 0.5	171.24 ± 8.8 kg/m3
563.15 K, 12360 kPa, x1 = 0.5	327.3 ± 9 kg/m3
563.15 K, 12940 kPa, x1 = 0.8	312.28 ± 3.5 kg/m3
563.15 K, 12970 kPa, x1 = 0.8	312.28 ± 3.6 kg/m3
563.15 K, 13290 kPa, x1 = 0.5	385.56 ± 3.3 kg/m3
563.15 K, 14460 kPa, x1 = 0.8	367.22 ± 3.8 kg/m3
563.15 K, 16510 kPa, x1 = 0.5	463.66 ± 1.3 kg/m3
563.15 K, 23620 kPa, x1 = 0.5	521.79 ± 0.76 kg/m3
568.15 K, 9040 kPa, x1 = 0.2	67.66 ± 2.8 kg/m3
573.15 K, 5420 kPa, x1 = 0.8	53.14 ± 1.7 kg/m3
573.15 K, 6590 kPa, x1 = 0.5	55.92 ± 0.97 kg/m3
573.15 K, 7820 kPa, x1 = 0.5	69.21 ± 1.5 kg/m3
573.15 K, 8780 kPa, x1 = 0.5	84.36 ± 1.8 kg/m3
573.15 K, 8990 kPa, x1 = 0.8	114.92 ± 2.2 kg/m3
573.15 K, 10460 kPa, x1 = 0.5	117.35 ± 2.7 kg/m3
573.15 K, 11580 kPa, x1 = 0.8	188.4 ± 3.3 kg/m3
573.15 K, 12050 kPa, x1 = 0.5	171.15 ± 5.4 kg/m3
573.15 K, 12840 kPa, x1 = 0.8	243.61 ± 5.2 kg/m3
573.15 K, 13010 kPa, x1 = 0.5	234.43 ± 7.6 kg/m3
573.15 K, 13190 kPa, x1 = 0.8	260.43 ± 4.1 kg/m3
573.15 K, 13610 kPa, x1 = 0.5	293.62 ± 4.9 kg/m3
573.15 K, 13720 kPa, x1 = 0.8	283.75 ± 4.6 kg/m3
573.15 K, 14410 kPa, x1 = 0.8	306.79 ± 2.8 kg/m3
573.15 K, 14490 kPa, x1 = 0.8	312.12 ± 2.8 kg/m3
573.15 K, 15660 kPa, x1 = 0.5	385.34 ± 4 kg/m3
573.15 K, 16440 kPa, x1 = 0.8	367.02 ± 2.6 kg/m3
573.15 K, 16820 kPa, x1 = 0.5	419.39 ± 3.5 kg/m3
573.15 K, 17060 kPa, x1 = 0.5	421.07 ± 3 kg/m3
573.15 K, 17150 kPa, x1 = 0.8	382.31 ± 1.9 kg/m3
573.15 K, 17210 kPa, x1 = 0.5	424.29 ± 3.2 kg/m3
573.15 K, 18650 kPa, x1 = 0.8	405.32 ± 1.5 kg/m3
573.15 K, 20120 kPa, x1 = 0.5	463.38 ± 1.1 kg/m3
573.15 K, 21340 kPa, x1 = 0.8	439.21 ± 1.3 kg/m3
573.15 K, 22500 kPa, x1 = 0.8	451.39 ± 1.2 kg/m3
573.15 K, 28040 kPa, x1 = 0.5	521.47 ± 0.82 kg/m3
573.15 K, 39960 kPa, x1 = 0.5	567.95 ± 0.73 kg/m3
573.15 K, 44900 kPa, x1 = 0.5	580.76 ± 0.7 kg/m3
577.15 K, 45760 kPa, x1 = 0.8	552.13 ± 0.71 kg/m3
578.15 K, 23390 kPa, x1 = 0.8	445.43 ± 0.87 kg/m3
578.15 K, 35170 kPa, x1 = 0.8	514.74 ± 0.76 kg/m3
578.15 K, 38000 kPa, x1 = 0.5	555.01 ± 0.71 kg/m3
593.15 K, 50760 kPa, x1 = 0.5	567.2 ± 0.7 kg/m3
598.15 K, 5820 kPa, x1 = 0.8	53.08 ± 1.5 kg/m3
598.15 K, 7080 kPa, x1 = 0.5	55.85 ± 0.73 kg/m3
598.15 K, 8560 kPa, x1 = 0.5	69.13 ± 1.2 kg/m3
598.15 K, 9720 kPa, x1 = 0.5	84.26 ± 1.4 kg/m3
598.15 K, 10060 kPa, x1 = 0.8	114.78 ± 1.7 kg/m3
598.15 K, 11840 kPa, x1 = 0.5	117.21 ± 2.7 kg/m3
598.15 K, 12030 kPa, x1 = 0.2	90.05 ± 2.1 kg/m3
598.15 K, 13600 kPa, x1 = 0.8	188.16 ± 2.3 kg/m3
598.15 K, 14290 kPa, x1 = 0.2	138.08 ± 3.7 kg/m3
598.15 K, 15290 kPa, x1 = 0.2	221.72 ± 38 kg/m3
598.15 K, 15460 kPa, x1 = 0.2	286.74 ± 29 kg/m3

Source: the NIST ThermoML archive (doi:10.1016/j.jct.2006.08.002)
